Where two headings read alike, the source gives them in different places.
How the values were obtained:
green peach aphid = assay: Test 5: Effect on Green Peach Aphid; format: in vivo; conditions: Myzus persicae; 100 ppm; mortality class; 24 hours; read-out: Insecticidal Activity
Procedure: (§1) To a mixture of 20 parts of the compound of the present invention and 20 parts of Sorpol SM-200 (registered tradename for the product supplied by Toho Chemical Industrial Co., Ltd.) was added 60 parts of xylol, and the mixture was suffciently blended. The obtained emulsifiable concentrate was diluted at a predetermined concentration with distilled water, and the obtained dilution was used.
Seedlings (having 3 to 4 leaves) of an eggplant grown on a pot were inoculated with green peach aphids and the insects were allowed to grow. The number of the insects was counted. A chemical dilution having a concentration of 100 ppm, prepared in the same manner as described in Test 1, was applied with a spray gun at a rate of 10 ml per pot. Then, the pot was placed in a glass green house. After 24 hours, the number of living insects was counted and the mortality was calculated.
The test was made on three pots, and the average value was calculated. In Table 6, mark "A" indicates a mortality higher than 95%, mark "B" indicates a mortality of 80 to 95%, mark "C" indicates a mortality of 50 to 80%, and mark "D" indicates a mortality lower than 50%.

Test 8: Fish Toxicity = format: in vivo; conditions: carp, water; concentration at which 1/2 of the test fishes were killed within 48 hours; read-out: Fish Toxicity, TLm48
Procedure: A water tank having a width of 60 cm, a length of 30 cm and a height of 40 cm was filled with water, and 10 yearling carps having a body length of about 5 cm were set free in the tank and adapted to the environment in the tank. A test compound was applied so that the concentration in water was 10, 1 or 0.1 ppm. After 48 hours, the numbers of killed and living carps were counted and the influences on the fishes were examined.

[1] = Test 9: Toxicity Test (acute oral toxicity, mice); conditions: mouse, in vivo, po
Procedure: A predetermined amount of a solution or suspension of a test compound in corn oil was orally administered to male mice having a body weight of 19 to 23 g (0.2 ml per 10 g of the body weight). After 7 days, the number of killed mice was counted and the influences on the mice were examined.

[2] = tested on: sensitive green rice leafhopper (collected at Chigasaki); assay: whole plant or invertebrate; format: in vivo; conditions: Nephotettix cincticeps, sensitive female adults, 24 hours, read-out: Mortality (%), Green Rice Leafhopper Collected at Chigasaki
Summary of the method: (§2)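 Emulsifiable concentrate diluted to 100 or 20 ppm was sprayed, 3 ml per pot, onto hydroponic rice seedlings at 2–3 leaves. After air-drying, 10 female adults of the Nakagawara (resistant) or Chigasaki (sensitive) strain were released per caged pot. Mortality was counted at 24 h and averaged over three pots.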

[3] = tested on: resistant green rice leafhopper (collected at Nakagawara); assay: Test 3: Effect on Resistant Green Rice Leafhopper (collected at Nakagawara); format: in vivo, Nephotettix cincticeps Uhler (Green rice leafhopper); conditions: Nephotettix cincticeps, 24 h, read-out: Mortality (%), Green Rice Leafhopper Collected at Nakagawara
Summary of the method: as §2

German cockroach = assay: Test 7: Effect on German Cockroach; format: in vivo; conditions: Blattella germanica
Procedure: as §1
The bottom face of a high Petri dish having a diameter of 9 cm and a height of 9 cm was treated with 50 or 10 mg/m^2 of a test compound and the dish was air-dried. In order to prevent the adults from escaping from the dish, the inner wall of the dish was treated with butter. Then, 10 male adults of German cockroach were set free in each dish, and the dish was placed in a thermostat chamber maintained at 25° C. After 24 hours, the number of agonized and killed adults was counted. The test was made on two dishes and the average value was calculated.

tobacco cutworm [4] = assay: Test 1: Effect on Tobacco Cutworm (leaf immersion), mortality after 24 hours; format: in vivo; conditions: second-instar larvae, 25° C
Summary of the method: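 Sweet-potato leaves dipped 10 s in emulsifiable concentrate diluted to 100 or 20 ppm, air-dried, then exposed to second-instar larvae at 25 °C. Mortality counted after 24 h, averaged over three cups.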

diamond back moth = assay: Test 4: Effect on Diamond Back Moth; format: in vivo; conditions: Plutella
Summary of the method: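 Compound formulated as an emulsifiable concentrate, diluted in water to 100 or 20 ppm and sprayed at 3 ml per cup onto cabbage leaves holding 10 third-instar larvae. Mortality counted after 24 hours; mean of three cups.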

tobacco cutworm [5] = assay: Test 2: Tobacco Cutworm Larva Dipping Test, mortality after 24 hours; format: in vivo
Summary of the method: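 Second- and fifth-instar larvae dipped 5 s in a water dilution of an emulsifiable concentrate at 100 or 20 ppm, blotted, then held on artificial diet at 25° C. Dead and living larvae counted after 24 hours; mortality averaged over three cups.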

[6] = 10 mg/m^2, male adults, agonized and killed after 24 hours, read-out: Mortality (%)
[7] = 50 mg/m^2, male adults, agonized and killed after 24 hours, read-out: Mortality (%)
[8] = 20 ppm, third-instar larvae, 24 hours, read-out: Mortality (%)
[9] = 100 ppm, third-instar larvae, 24 hours, read-out: Mortality (%)
[10] = 24 h, read-out: Motality (%), Fifth-Instar Larvae
[11] = 24 h, read-out: Motality (%), Second-Instar Larvae

SMILES | mortality at 100 ppm (green peach aphid) | LC50 at 48 h (Test 8: Fish Toxicity) | LD50 at 168 h [1] | mortality at 20 ppm [2] | mortality at 100 ppm [2] | mortality at 20 ppm [3] | mortality at 100 ppm [3] | mortality at 20 ppm (tobacco cutworm [4]) | mortality at 100 ppm (tobacco cutworm [4]) | other results
CCC(C)(COCc1cccc(Oc2cccc(Cl)c2)c1)c1cccc(C)c1 (centres unmarked) [Compound 29] | 80 to 95% | > 10 µg/mL | > 500 mg/kg | – | – | – | – | – | – | –
C#Cc1ccc(C(C)(C)COCc2cccc(Oc3ccccc3)c2)cc1 [Compound 96, 3-Phenoxybenzyl 2-(4-ethynylphenyl)-2-methylpropyl ether] | 80 to 95% | – | > 500 mg/kg | 60% | 100% | 90% | 100% | – | – | –
CSc1ccc(C(C)(C)COCc2cccc(Oc3ccccc3)c2)cc1 [Compound 24, 3-Phenoxybenzyl 2-(4-methylthiophenyl)-2-methylpropyl ether] | > 95% | > 10 µg/mL | > 500 mg/kg | 40% | 100% | 70% | 100% | – | – | –
CC(C)(COCc1cccc(Oc2ccccc2)c1)c1cccc(C(F)(F)F)c1 [Compound 39, 3-Phenoxybenzyl 2-(3-trifluoromethylphenyl)-2-methylpropyl ether] | > 95% | – | > 500 mg/kg | 100% | 100% | 100% | 100% | 90% | 100% | mortality at 10 mg/m2 (German cockroach; [6]): 90%; mortality at 50 mg/m2 (German cockroach; [7]): 100%
CCOc1ccc(C(C)(C)CSCc2cccc(Oc3ccccc3)c2)cc1 [Compound 95] | > 95% | – | > 500 mg/kg | 100% | 100% | 100% | 100% | 100% | 100% | –
CCOc1ccc(C(C)(CC)COCc2cccc(Oc3ccccc3)c2)cc1 (centres unmarked) [Compound 103, 3-Phenoxybenzyl 2-(4-ethoxyphenyl)-2-ethylpropyl ether] | > 95% | – | > 500 mg/kg | 100% | 100% | 100% | 100% | 100% | 100% | –
CCC(C)(COCc1cccc(Oc2ccccc2)c1)c1ccc(C)cc1 (centres unmarked) [Compound 53, 3-Phenoxybenzyl 2-(4-methylphenyl)-2-ethylpropyl ether] | 80 to 95% | > 10 µg/mL | > 500 mg/kg | 80% | 100% | 100% | 100% | – | – | mortality at 20 ppm (diamond back moth; [8]): 100%; mortality at 100 ppm (diamond back moth; [9]): 100%
COP(=O)(OC)OC=C(Cl)Cl [(g), O,O-dimethyl-O-(2,2-dichlorovinyl)phosphate, reference compound] | < 50% | – | – | – | – | – | – | – | – | mortality at 20 ppm (diamond back moth; 24 h): 0%; mortality at 100 ppm (diamond back moth; 24 h): 60%; mortality at 20 ppm (tobacco cutworm [5]; [10]): 10%; mortality at 100 ppm (tobacco cutworm [5]; [10]): 30%; mortality at 20 ppm (tobacco cutworm [5]; [11]): 20%; mortality at 100 ppm (tobacco cutworm [5]; [11]): 50%; mortality at 10 mg/m2 (German cockroach; 24 h): 40%; mortality at 50 mg/m2 (German cockroach; 24 h): 100%
CCOc1ccc(C(C)(C)COCc2cccc(Oc3ccccc3)c2)cc1OCC [Compound 93, 3-Phenoxybenzyl 2-(3,4-diethoxyphenyl)-2-methylpropyl ether] | > 95% | – | > 500 mg/kg | 75% | 100% | 100% | 100% | 100% | 100% | mortality at 10 mg/m2 (German cockroach; [6]): 100%; mortality at 50 mg/m2 (German cockroach; [7]): 100%
CC(C)(COCc1cccc(Oc2ccccc2F)c1)c1ccc(Cl)cc1 [Compound 14] | > 95% | – | > 500 mg/kg | 100% | 100% | 100% | 100% | 100% | 100% | mortality at 20 ppm (diamond back moth; [8]): 100%; mortality at 100 ppm (diamond back moth; [9]): 100%; mortality at 10 mg/m2 (German cockroach; [6]): 100%; mortality at 50 mg/m2 (German cockroach; [7]): 100%
Cc1ccc(C(C)(C)COCc2cccc(Oc3ccc(F)cc3)c2)cc1 [Compound 3, 3-(4-Fluorophenoxy)benzyl 2-(4-methylphenyl)-2-methylpropyl ether] | > 95% | – | > 500 mg/kg | 100% | 100% | 100% | 100% | 83% | 100% | mortality at 20 ppm (tobacco cutworm [5]; 20 ppm, fifth-instar larvae, 24 hours, read-out: Motality (%), Fifth-Instar Larvae): 60%; mortality at 20 ppm (tobacco cutworm [5]; 20 ppm, second-instar larvae, 24 hours, read-out: Motality (%), Second-Instar Larvae): 70%; mortality at 100 ppm (tobacco cutworm [5]; 100 ppm, fifth-instar larvae, 24 hours, read-out: Motality (%), Fifth-Instar Larvae): 70%; mortality at 100 ppm (tobacco cutworm [5]; 100 ppm, second-instar larvae, 24 hours, read-out: Motality (%), Second-Instar Larvae): 90%
CCOc1ccc(C(C)(C)COCc2cccc(Oc3ccccc3)c2)cc1Cl [Compound 78, 3-Phenoxybenzyl 2-(3-chloro-4-ethoxyphenyl)-2-methylpropyl ether] | > 95% | – | > 500 mg/kg | 100% | 100% | 100% | 100% | 100% | 100% | mortality at 20 ppm (diamond back moth; [8]): 100%; mortality at 100 ppm (diamond back moth; [9]): 100%
CC(C)(COCc1cccc(Sc2ccccc2)c1)c1ccc(Cl)cc1 [Compound 15, 3-Phenylthiobenzyl 2-(4-chlorophenyl)-2-methylpropyl ether] | 80 to 95% | > 10 µg/mL | > 500 mg/kg | 70% | 100% | 90% | 100% | – | – | –
CC(C)(COCc1coc(Cc2ccccc2)c1)c1ccc(Cl)cc1 [Compound 12, 5-Benzyl-3-furylmethyl 2-(4-chlorophenyl)-2-methylpropyl ether] | 80 to 95% | > 10 µg/mL | > 500 mg/kg | – | – | – | – | – | – | –
COc1ccc(Oc2cccc(COCC(C)(C)c3ccc(SC)cc3)c2)cc1 [Compound 8, 3-(4-Methoxyphenoxy)benzyl 2-(4-methylthiophenyl)-2-methylpropyl ether] | 80 to 95% | > 10 µg/mL | > 500 mg/kg | – | – | – | – | – | – | –
CC(C)(CSCc1cccc(Oc2ccc(F)cc2)c1)c1ccc(Cl)cc1 [Compound 9] | > 95% | – | > 500 mg/kg | 70% | 100% | 90% | 100% | 90% | 100% | mortality at 20 ppm (diamond back moth; [8]): 95%; mortality at 100 ppm (diamond back moth; [9]): 100%; mortality at 10 mg/m2 (German cockroach; [6]): 100%; mortality at 50 mg/m2 (German cockroach; [7]): 100%
COC(C)c1ccc(C(C)(C)COCc2cccc(Oc3ccccc3)c2)cc1 (centres unmarked) [Compound 86, 3-Phenoxybenzyl 2[4-(1-methoxyethyl)phenyl]-2-methylpropyl ether] | 80 to 95% | – | > 500 mg/kg | – | – | – | – | – | – | –

Source: patent US4570005A, “Process for the preparation of 2-arylpropyl ether or thioether derivatives” (priority 1980, dated 1986)
